Test results reported in US8309790B2, “Animal models for demyelination disorders” (University of Chicago, priority 2005, dated 2012).

Tests used:
mice with EAE = assay: EAE, CNS delivery of INF-γ at the recovery stage (doxycycline withdrawn at PID7); format: in vivo
Source text: Double transgenic mice that allow for temporally regulated delivery of INF-γ to the CNS (Lin et al., J Neurosci 24:10074-10083 (2004)) were used to assess the role of INF-γ in the pathogenesis of EAE. GFAP/tTA; TRE/IFN-γ double transgenic mice, as described in Example 1 were used to determine the effect of INF-γ on the demyelination caused by EAE. All mice were fed doxycycline from the day of conception to repress the expression of INF-γ, and were immunized with myelin oligodendrocyte protein (MOG35-55) to induce EAE. At day 7 postimmunization (PID7), doxycycline was withdrawn from the experimental group (PID7 DOX−).
The level of INF-γ was determined in the control (DOX+) and the PID7 DOX− mice using an ELISA immunoassay as described in Example 1, and the severity of the disease was assessed as a function of a clinical score. Clinical severity scores were recorded daily according to a 0-5 point scale, where 0=healthy, 1=flaccid tail, 2=ataxia and/or paresis of hind limbs, 3=paralysis of hind limbs and/or paresis of forelimbs, 4=tetraparalysis, and 5=moribund or dead.
The spinal cord from DOX+ and DOX− animals with EAE was immunostained for MBP, and the remyelination of axons was evaluated. The number of oligodendrocytes was determined in the spine from DOX+ and DOX− mice as the number of CC1 positive cells. Axonal damage was evaluated by immunostaining of non-phosphorylated neurofilament-H. Antibodies to non-phosphorylated neurofilament-H were SMI32 diluted to 1:1000 and obtained from Stemberger Monoclonals.
INF-γ is known to induce MHC antigens and activate macrophages and T lymphocytes. The inflammatory effect of INF-γ was studied in the CNS during remyelination by determining the infiltration of T cells and macrophages, and measuring the expression of MHC-1, TNF-a, IL-2, IL-12 and IL-17. Immunohistochemistry was performed in tissues from the DOX+ and DOX− mice with EAE as described in Example 4. Experimental procedures were followed as described in the examples above.

[1] = test system: corpus callosum of double transgenic mice treated with cuprizone; assay: Cuprizone-induced demyelination and remyelination in GFAP/tTA; TRE/IFN-γ double transgenic mice; format: in vivo
Description: The effects of IFN-γ on demyelination were evaluated in a cuprizone animal model using transgenic mice that allow for temporally regulated delivery of IFN-γ using the tetracycline controllable system (Lin, et al. (2004) J. Neurosci. 24: 10074-10083). The transgenic mice were generated by mating line 110 GFAP/tTA mice on the C57BL/6 background with line 184 TRE/IFN-γ on the C57BL/6 background to produce GFAP/tTA; TRE/IFN-γ double transgenic mice (Lin, et al. (2004) J. Neurosci. 24: 10074-10083). Transcriptional activation of the TRE/IFN-γ transgene by tTA was repressed in the control (DOX+) mice by adding 0.05 mg/ml doxycycline to the drinking water which was provided ad libitum from the day of conception. The DOX+ double transgenic mice were GFAP/tTA; TRE/IFN-γdouble transgenic animals fed cuprizone chow and never released from the doxycycline solution. DOX− double transgenic mice were GFAP/tTA; TRE/IFN-γdouble transgenic animals fed cuprizone chow and released from doxycycline to induce expression of IFN-γ.
Demyelination was induced in 6-week-old DOX+ and DOX− male mice by feeding the mice a diet of milled mouse chow containing 0.2% cuprizone (Sigma-Aldrich, St. Louis, […].) for up to 6 weeks. Subsequently, both groups of mice were returned to a normal diet for up to 3 weeks to allow remyelination to occur. All animal procedures were conducted in complete compliance with the NIH Guide for the Care and Use of Laboratory Animals and were approved by the Institutional Animal Care and Use Committee of The University of Chicago.
The effects of INF-γ and MBP on demyelination were evaluated as the level of INF-γ and MHC-1, the loss of oligodendrocytes, and the expression of myelin genes.
The expression of IFN-γ in these animals was examined by Enzyme-Linked Immunosorbent Assay (ELISA) analysis as follows. Spinal cord and forebrains were removed, rinsed in ice cold PBS, and immediately homogenized in five volumes of PBS with complete protease cocktail (Roche, Indianapolis, Ind.) using a motorized homogenizer. After incubation on ice for 5 min the extracts were cleared by centrifugation at 14000 rpm for 10 min. The protein content of each extract was determined by the DC protein assay (Bio-Rad, Hercules, Calif.). […]
The effect of INF-γ on the population of oligodendrocytes was evaluated by immunohistochemical analysis of oligodendrocytes using an anti-CC1 antibody (APC7, 1:50; EMD Biosciences, Inc., La Jolla, Calif.) Immunohistochemistry was performed on brain sections obtained from mice that were first anesthetized mice and perfused through the left cardiac ventricle with 4% paraformaldehyde in 0.1 M PBS. […]

[2] = spinal cord, DOX− compared to DOX+, PID50

For interferon-γ [IFN-γ], the “number of CC1 positive oligodendrocytes” value (mice with EAE; DOX− animals, lumbar spinal cord, PID50) was “significantly decreased”, the “mice that developed hind limb paralysis” value (mice with EAE; DOX− mice, PID17) was 24 of 30 and the “mean maximum clinical score” value (mice with EAE; DOX− mice, PID17, 0-5 point scale) was 2.69±0.69. For the same substance, the clinical score (mice with EAE; DOX− mice, PID50) was about 2, the “mice with hind limb paralysis that continued to suffer from the paralysis” value (mice with EAE; DOX− mice, PID50) was 12/24 and the “axonal damage (non-phosphorylated neurofilament-H immunostaining)” value (mice with EAE; DOX− vs DOX+ mice) was “not affected”. The “number of infiltrating T cells and macrophages in the lumbar spinal cord (CD3, CD11b)” value (mice with EAE; DOX− vs DOX+ mice) was “did not increase significantly”, the “expression of IL-17” value (mice with EAE; [2]) was “decrease” and the “expression of iNOs and IL-23” value (mice with EAE; [2]) was “did not alter”. The “expression of MHC-1, TNF-a, IL2 and IL-12” value (mice with EAE; spinal cord, DOX− compared to DOX+, PID50, real time PCR) was “increased”, the remyelinated axons ([1]; DOX− mice, corpus callosum, 8 weeks, EM) was 26.9%±7% and the “expression of myelin genes MBP, PLP and CGT” value ([1]; DOX− mice, corpus callosum, week 6 and week 8) was “significantly depressed”. The “expression of MHC class I (MHC-I) in the corpus callosum, real-time PCR” value ([1]; DOX− mice, during remyelination) was “significant increase” and the “effect on the initial pathological processes induced by cuprizone exposure” value ([1]; DOX− vs DOX+ mice, up to 5 weeks cuprizone) was “does not have a significant effect”.
